This is an account of results in US6426222B1, “Method for inducing osteoblast differentiation of human extramedullary adipose tissue cells” (Bio Holdings International Limited, priority 1997, dated 2002).

Bounds are passed on as bounds.

In test [1] the test system is human extramedullary adipose tissue cells. The experiment in a line: Alkaline phosphatase activity of treated cultures (para-nitrophenol phosphate substrate). It is filed as cell-based. As to conditions: dexamethasone 10^-7 M.
Protocol: Adipose tissue biopsies were taken during plastic surgery of the abdomen on healthy patients, of ages of from 25 to 50.
The tissues taken were sliced thinly into small fragments and digested for 90 minutes with collagenase (2 mg/ml) in a Krebs Ringer buffer at 37° C. Filtering was performed on a screen having a pore size of 100 μm, the filtrate was recovered, and centrifuged at 1000 revolutions per minute (rpm) for 5 min. The supernatant was removed and the pellet was washed several times in Krebs Ringer buffer. The washing and centrifuging steps were repeated several times and on each occasion the supernatant containing mature adipocytes was removed. The resulting cells were suspended in DME/F12 (Sigma Chemical Co., St. Louis, Mo. USA; reference D-6905) culture medium containing 10% fetal calf serum, 100 μg/ml streptomycin, and 100 U/ml penicillin.
Polystyrene culture dishes (“tissue culture flasks” sold by Becton-Dickinson under the references 3013, 3028, and 3084) were inoculated with the resulting cell suspension and incubation was performed at 37° C. under an atmosphere of moist air with 5% additional CO2. […]
The quantity of para-nitrophenol formed upon hydrolysis of the substrate was determined by measuring the absorbance at 410 nm, which was converted into nanomoles of enzyme using a calibration curve established on the basis of known concentrations of para-nitrophenol.
The target in test [2] is placenta type alkaline phosphatase (Homo sapiens, UniProt P05187). As to conditions: read-out: levamisole concentration for 50% inhibition of activity, placenta type alkaline phosphatase; cited from earlier work.
Test [3] deals with intestine type alkaline phosphatase (Homo sapiens, UniProt P09923). Conditions: read-out: levamisole concentration for 50% inhibition of activity, intestine type alkaline phosphatase; cited from earlier work.
Sequence of intestine type alkaline phosphatase (P09923 20-503 limits assumed): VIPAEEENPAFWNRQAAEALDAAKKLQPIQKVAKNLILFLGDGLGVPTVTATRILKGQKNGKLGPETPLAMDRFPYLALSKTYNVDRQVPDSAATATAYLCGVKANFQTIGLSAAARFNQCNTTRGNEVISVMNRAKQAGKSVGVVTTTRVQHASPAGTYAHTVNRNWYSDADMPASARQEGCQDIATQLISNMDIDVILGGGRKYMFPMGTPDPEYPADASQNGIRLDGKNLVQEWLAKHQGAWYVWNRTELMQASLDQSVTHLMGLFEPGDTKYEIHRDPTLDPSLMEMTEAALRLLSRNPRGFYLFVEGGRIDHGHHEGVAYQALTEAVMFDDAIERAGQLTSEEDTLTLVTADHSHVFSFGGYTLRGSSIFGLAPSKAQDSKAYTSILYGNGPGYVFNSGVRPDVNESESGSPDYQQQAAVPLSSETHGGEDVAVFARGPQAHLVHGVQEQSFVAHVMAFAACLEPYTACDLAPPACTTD

Sequence of placenta type alkaline phosphatase (P05187 23-506 limits assumed): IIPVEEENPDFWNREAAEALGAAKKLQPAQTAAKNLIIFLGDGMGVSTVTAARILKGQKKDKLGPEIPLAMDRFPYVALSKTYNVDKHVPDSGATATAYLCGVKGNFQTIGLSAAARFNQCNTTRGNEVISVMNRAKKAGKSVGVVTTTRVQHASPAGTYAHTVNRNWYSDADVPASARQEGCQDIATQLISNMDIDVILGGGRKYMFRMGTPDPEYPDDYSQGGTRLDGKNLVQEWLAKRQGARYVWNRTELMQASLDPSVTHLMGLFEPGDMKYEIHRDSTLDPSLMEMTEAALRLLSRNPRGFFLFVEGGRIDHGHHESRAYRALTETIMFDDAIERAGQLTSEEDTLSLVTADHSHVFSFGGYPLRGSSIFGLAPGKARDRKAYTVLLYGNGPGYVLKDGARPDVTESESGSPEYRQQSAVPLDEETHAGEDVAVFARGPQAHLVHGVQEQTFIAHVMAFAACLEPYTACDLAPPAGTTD

For `C[C@@H]1C[C@H]2[C@@H]3CCC4=CC(=O)C=C[C@]4(C)[C@@]3(F)[C@@H](O)C[C@]2(C)[C@@]1(O)C(=O)CO` [dexamethasone], in test [1], the “alkaline phosphatase activity, observed in nearly all cases” value is on record as “not less than 200 nanomoles of para-nitrophenol/30 min/well” and the “alkaline phosphatase activity, sometimes as high as” value is on record as at most 700 nanomoles/30 min/well.

As for `c1ccc([C@H]2CN3CCSC3=N2)cc1` [levamisole], the IC50 in test [2] is around 1000 µM; in test [3], around 3000 µM.
